This note sets out measurements from patent US20230048132A1, “CYCLIN-DEPENDENT KINASE INHIBITORS” (SPV THERAPEUTICS INC., priority 2018, published 2023).

Experiment [1] concerns the target T1, CDK6-CYCLIND3 (Homo sapiens, UniProt Q00534).
T1 construct: purchased Carna
As to the kind of experiment: CDK inhibition assay (microfluidic LabChip, IC50 format). It counts as biochemical.

Experiment [2] concerns the target CDK4-CYCLIND1 (Homo sapiens, UniProt P11802). Described as above.
Setting [3] is: Table 4b, upper part, read-out: CDK6 IC50.
The mark [4] stands for this setting: CDK4 IC50, Table 4b, upper part.
[5] abbreviates: Table 3, second value of the cell CDK4/CDK6, value of the racemate, read-out: Racemate Activity CDK6.
Setting [6] is: Racemate Activity CDK4, Table 3, first value of the cell CDK4/CDK6, value of the racemate.

Read-outs that look alike come from different tables or passages of the source.

T1 sequence (Q00534 whole entry): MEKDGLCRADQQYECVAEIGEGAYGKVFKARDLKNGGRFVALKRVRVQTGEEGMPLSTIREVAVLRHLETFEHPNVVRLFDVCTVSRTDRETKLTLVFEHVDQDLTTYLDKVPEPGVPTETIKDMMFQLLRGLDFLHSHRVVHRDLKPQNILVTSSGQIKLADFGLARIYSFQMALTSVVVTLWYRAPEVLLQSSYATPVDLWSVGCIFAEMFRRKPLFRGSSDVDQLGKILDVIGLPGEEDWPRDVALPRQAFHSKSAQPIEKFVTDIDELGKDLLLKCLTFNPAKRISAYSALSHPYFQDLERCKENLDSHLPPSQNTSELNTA
T1 sequence (P30281 whole entry partner): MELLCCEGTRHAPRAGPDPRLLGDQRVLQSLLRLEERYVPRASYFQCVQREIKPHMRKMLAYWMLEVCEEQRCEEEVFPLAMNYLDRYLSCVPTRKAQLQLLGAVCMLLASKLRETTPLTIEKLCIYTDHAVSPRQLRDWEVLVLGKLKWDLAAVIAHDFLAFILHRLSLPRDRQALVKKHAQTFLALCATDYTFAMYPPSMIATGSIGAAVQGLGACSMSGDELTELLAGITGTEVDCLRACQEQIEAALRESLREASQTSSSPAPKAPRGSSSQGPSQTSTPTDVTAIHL
CDK4-CYCLIND1, sequence (P11802 whole entry): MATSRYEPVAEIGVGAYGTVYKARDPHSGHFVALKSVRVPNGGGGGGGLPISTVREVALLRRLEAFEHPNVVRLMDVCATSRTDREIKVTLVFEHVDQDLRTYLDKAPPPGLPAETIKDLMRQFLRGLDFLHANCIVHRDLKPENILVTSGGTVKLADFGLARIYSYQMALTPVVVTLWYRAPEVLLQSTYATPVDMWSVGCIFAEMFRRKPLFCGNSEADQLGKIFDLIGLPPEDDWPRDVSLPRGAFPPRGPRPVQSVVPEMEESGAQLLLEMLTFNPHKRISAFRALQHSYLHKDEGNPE
CDK4-CYCLIND1, sequence (P24385 whole entry partner): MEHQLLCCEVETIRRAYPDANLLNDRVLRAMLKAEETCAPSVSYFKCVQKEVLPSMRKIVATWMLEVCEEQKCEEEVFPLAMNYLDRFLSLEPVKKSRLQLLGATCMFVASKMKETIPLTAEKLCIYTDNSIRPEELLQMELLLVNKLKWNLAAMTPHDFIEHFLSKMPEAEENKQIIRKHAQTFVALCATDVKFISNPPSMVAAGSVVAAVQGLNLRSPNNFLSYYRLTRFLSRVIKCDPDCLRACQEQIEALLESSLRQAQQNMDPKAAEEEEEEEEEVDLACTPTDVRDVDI

With `CN1CCC2(Cc3cnc(Nc4ccc(N5CCNCC5)cc4)nc3N(C3CCCC3)C2=O)C1=O` (stereo not drawn) [Example D1, 8-cyclopentyl-1′-methyl-2-((4-(piperazin-1-yl)phenyl)amino)-5,8-dihydro-7H-spiro[pyrido[2,3-d]pyrimidine-6,3′-pyrrolidine]-2′,7-dione], the IC50 in experiment [1] (setting [3]) turned out to be 84.1 nM; in experiment [2] (setting [4]), 27 nM.

As for `CC(C)N1CCN(c2ccc(Nc3ncc4c(n3)N(C3CCCC3)C(=O)C3(CCN(C)C3=O)C4)cc2)CC1` (stereo not drawn) [Example D2, 8-cyclopentyl-2-((4-(4-isopropylpiperazin-1-yl)phenyl)amino)-1′-methyl-5,8-dihydro-7H-spiro[pyrido[2,3-d]pyrimidine-6,3′-pyrrolidine]-2′,7-dione], the IC50 amounted to 360 nM in experiment [1] (setting [3]) and 83.6 nM in experiment [2] (setting [4]).

Regarding `O=C1NCCC12Cc1cnc(Nc3ccc(N4CCNCC4)cc3)nc1N(C1CCCC1)C2=O` (stereo not drawn) [Example D3, 8-cyclopentyl-2-((4-(piperazin-1-yl)phenyl)amino)-5,8-dihydro-7H-spiro[pyrido[2,3-d]pyrimidine-6,3′-pyrrolidine]-2′,7-dione], the IC50 came out at 6.03 nM in experiment [1] (setting [5]), 6.03 nM in experiment [1] (setting [3]), 2.81 nM in experiment [2] (setting [4]) and 2.81 nM in experiment [2] (setting [6]).

Consider `CN1CCN(c2ccc(Nc3ncc4c(n3)N(C3CCCC3)C(=O)C3(CCNC3=O)C4)cc2)CC1` (stereo not drawn) [Example D4, 8-cyclopentyl-2-((4-(4-methylpiperazin-1-yl)phenyl)amino)-5,8-dihydro-7H-spiro[pyrido[2,3-d]pyrimidine-6,3′-pyrrolidine]-2′,7-dione], for which, in experiment [1] (setting [3]), the IC50 amounted to 4.9 nM.

In the case of `CC(C)N1CCN(c2ccc(Nc3ncc4c(n3)N(C3CCCC3)C(=O)C3(CCNC3=O)C4)cc2)CC1` (stereo not drawn) [Example D5], the IC50 was 5.67 nM in experiment [1] (setting [3]) and 2.64 nM in experiment [2] (setting [4]).

With `CC(C)N1CCN(c2ccc(Nc3ncc4c(n3)N(C3CCCC3)C(=O)C3(CCNC3=O)C4)cn2)CC1` (stereo not drawn) [Example D6, 8-cyclopentyl-2-((6-(4-isopropylpiperazin-1-yl)pyridin-3-yl)amino)-5,8-dihydro-7H-spiro[pyrido[2,3-d]pyrimidine-6,3′-pyrrolidine]-2′,7-dione], the IC50 in experiment [1] (setting [3]) was 3.94 nM; in experiment [2] (setting [4]) it was 1.88 nM.

`O=C1NCCC12Cc1cnc(Nc3ccc(N4CCNCC4)nc3)nc1N(C1CCCC1)C2=O` (stereo not drawn) [Example D7, 8-cyclopentyl-2-((6-(piperazin-1-yl)pyridin-3-yl)amino)-5,8-dihydro-7H-spiro[pyrido[2,3-d]pyrimidine-6,3′-pyrrolidine]-2′,7-dione]: the IC50 was found to be 13.1 nM in experiment [1] (setting [3]) and 8.68 nM in experiment [2] (setting [4]).

For `CN1CCN(c2ccc(Nc3ncc4c(n3)N(C3CCCC3)C(=O)C3(CCNC3=O)C4)nc2)CC1` (stereo not drawn) [Example D8, 8-cyclopentyl-2-((5-(4-methylpiperazin-1-yl)pyridin-2-yl)amino)-5,8-dihydro-7H-spiro[pyrido[2,3-d]pyrimidine-6,3′-pyrrolidine]-2′,7-dione], the IC50 came to 3.92 nM in experiment [1] (setting [3]) and 2.06 nM in experiment [2] (setting [4]).

`CC(C)N1CCN(c2ccc(Nc3ncc4c(n3)N(C3CCCC3)C(=O)C3(CCNC3=O)C4)nc2)CC1` (stereo not drawn) [Example D9, 8-cyclopentyl-2-((5-(4-isopropylpiperazin-1-yl)pyridin-2-yl)amino)-5,8-dihydro-7H-spiro[pyrido[2,3-d]pyrimidine-6,3′-pyrrolidine]-2′,7-dione]: the IC50 was determined as 6.11 nM in experiment [1] (setting [3]) and 2.99 nM in experiment [2] (setting [4]).

On to `CC(C)N1CCN(c2ccc(Nc3ncc4c(n3)N(C3CCCC3)C(=O)C3(CCNC3=O)C4)cc2F)CC1` (stereo not drawn) [Example D10, 8-cyclopentyl-2-((3-fluoro-4-(4-isopropylpiperazin-1-yl)phenyl)amino)-5,8-dihydro-7H-spiro[pyrido[2,3-d]pyrimidine-6,3′-pyrrolidine]-2′,7-dione], for which the IC50 in experiment [1] (setting [5]) amounted to 3.5 nM; in experiment [1] (setting [3]), 3.53 nM; in experiment [2] (setting [4]), 1.5 nM; in experiment [2] (setting [6]), 1.5 nM.

With `O=C1NCCC12Cc1cnc(Nc3ccc(N4CCNCC4)c(F)c3)nc1N(C1CCCC1)C2=O` (stereo not drawn) [Example D11, 8-cyclopentyl-2-((3-fluoro-4-(piperazin-1-yl)phenyl)amino)-5,8-dihydro-7H-spiro[pyrido[2,3-d]pyrimidine-6,3′-pyrrolidine]-2′,7-dione], the IC50 in experiment [1] (setting [5]) amounted to 3.5 nM; in experiment [1] (setting [3]), 4.38 nM; in experiment [2] (setting [4]), 2.09 nM; in experiment [2] (setting [6]) it was 2.1 nM.

Regarding `CN1CCN(c2ccc(Nc3ncc4c(n3)N(C3CCCC3)C(=O)C3(CCNC3=O)C4)cc2F)CC1` (stereo not drawn) [Example D12, 8-cyclopentyl-2-((3-fluoro-4-(4-methylpiperazin-1-yl)phenyl)amino)-5,8-dihydro-7H-spiro[pyrido[2,3-d]pyrimidine-6,3′-pyrrolidine]-2′,7-dione], the IC50 in experiment [1] (setting [5]) turned out to be 2.9 nM; in experiment [1] (setting [3]) it was 2.86 nM; in experiment [2] (setting [4]), 1.83 nM; in experiment [2] (setting [6]), 1.8 nM.

For `CN(C)CCOc1ccc(Nc2ncc3c(n2)N(C2CCCC2)C(=O)C2(CCNC2=O)C3)cc1` (stereo not drawn) [Example D13, 8-cyclopentyl-2-((4-(2-(dimethylamino)ethoxy)phenyl)amino)-5,8-dihydro-7H-spiro[pyrido[2,3-d]pyrimidine-6,3′-pyrrolidine]-2′,7-dione], the figures for the IC50 in experiment [1] (setting [3]) and in experiment [2] (setting [4]) were 6.38 nM and 3.35 nM, respectively.

For `CN(C)CCOc1ccc(Nc2ncc3c(n2)N(C2CCCC2)C(=O)C2(CCNC2=O)C3)cn1` (stereo not drawn) [Example D14, 8-cyclopentyl-2-((6-(2-(dimethylamino)ethoxy)pyridin-3-yl)amino)-5,8-dihydro-7H-spiro[pyrido[2,3-d]pyrimidine-6,3′-pyrrolidine]-2′,7-dione], the IC50 stood at 20.7 nM in experiment [1] (setting [3]) and 10.7 nM in experiment [2] (setting [4]).

`O=C1NCCC12Cc1cnc(Nc3ccc(OCCN4CCCC4)nc3)nc1N(C1CCCC1)C2=O` (stereo not drawn) [Example D15, 8-cyclopentyl-2-((6-(2-(pyrrolidin-1-yl)ethoxy)pyridin-3-yl)amino)-5,8-dihydro-7H-spiro[pyrido[2,3-d]pyrimidine-6,3′-pyrrolidine]-2′,7-dione]: the IC50 in experiment [1] (setting [3]) is 15.8 nM; in experiment [2] (setting [4]) it was 7.08 nM.

In the case of `O=C1NCCC12Cc1cnc(Nc3ccc(OCCN4CCCC4)c(F)c3)nc1N(C1CCCC1)C2=O` (stereo not drawn) [Example D16, 8-cyclopentyl-2-((3-fluoro-4-(2-(pyrrolidin-1-yl)ethoxy)phenyl)amino)-5,8-dihydro-7H-spiro[pyrido[2,3-d]pyrimidine-6,3′-pyrrolidine]-2′,7-dione], the values for the IC50 in experiment [1] (setting [3]) and in experiment [2] (setting [4]) were 8.81 nM and 5.25 nM, respectively.

As for `O=C1NCCC12Cc1cnc(Nc3ccc(N4CCOCC4)c(F)c3)nc1N(C1CCCC1)C2=O` (stereo not drawn) [Example D17, 8-cyclopentyl-2-((3-fluoro-4-morpholinophenyl)amino)-5,8-dihydro-7H-spiro[pyrido[2,3-d]pyrimidine-6,3′-pyrrolidine]-2′,7-dione], the IC50 in experiment [1] (setting [3]) was 10.2 nM; in experiment [2] (setting [4]), 4.41 nM.

On to `CC(C)N1CCN(c2ccc(Nc3ncc4c(n3)N(C3CCCC3)C(=O)C3(CCN(C)C3=O)C4)cn2)CC1` (stereo not drawn) [Example D18, 8-cyclopentyl-2-((6-(4-isopropylpiperazin-1-yl)pyridin-3-yl)amino)-1′-methyl-5,8-dihydro-7H-spiro[pyrido[2,3-d]pyrimidine-6,3′-pyrrolidine]-2′,7-dione], for which the IC50 in experiment [1] (setting [3]) stood at 166 nM; in experiment [2] (setting [4]) it was 53 nM.

In the case of `CN1CCN(c2ccc(Nc3ncc4c(n3)N(C3CCCC3)C(=O)C3(CCN(C)C3=O)C4)cc2F)CC1` (stereo not drawn) [Example D19, 8-cyclopentyl-2-((3-fluoro-4-(4-methylpiperazin-1-yl)phenyl)amino)-1′-methyl-5,8-dihydro-7H-spiro[pyrido[2,3-d]pyrimidine-6,3′-pyrrolidine]-2′,7-dione], the IC50 worked out at 97.2 nM in experiment [1] (setting [3]) and 33.6 nM in experiment [2] (setting [4]).

As for `CN1C(=O)CC2(Cc3cnc(Nc4ccc(N5CCNCC5)cc4)nc3N(C3CCCC3)C2=O)C1=O` (stereo not drawn) [Example D20, 8-cyclopentyl-1′-methyl-2-((4-(piperazin-1-yl)phenyl)amino)-5,8-dihydro-7H-spiro[pyrido[2,3-d]pyrimidine-6,3′-pyrrolidine]-2′,5′,7-trione], the IC50 in experiment [1] (setting [3]) amounted to 198 nM; in experiment [2] (setting [4]) it was 50.7 nM.

Take `CN1CCN(c2ccc(Nc3ncc4c(n3)N(C3CCCC3)C(=O)C3(CC(=O)N(C)C3=O)C4)cc2)CC1` (stereo not drawn) [Example D21, 8-cyclopentyl-1′-methyl-2-((4-(4-methylpiperazin-1-yl)phenyl)amino)-5,8-dihydro-7H-spiro[pyrido[2,3-d]pyrimidine-6,3′-pyrrolidine]-2′,5′,7-trione]: the IC50 is 166 nM in experiment [1] (setting [3]) and 51.2 nM in experiment [2] (setting [4]).

With `CC(C)N1CCN(c2ccc(Nc3ncc4c(n3)N(C3CCCC3)C(=O)C3(CC(=O)N(C)C3=O)C4)cc2)CC1` (stereo not drawn) [Example D22, 8-cyclopentyl-2-((4-(4-isopropylpiperazin-1-yl)phenyl)amino)-1′-methyl-5,8-dihydro-7H-spiro[pyrido[2,3-d]pyrimidine-6,3′-pyrrolidine]-2′,5′,7-trione], the IC50 in experiment [1] (setting [3]) is 129 nM; in experiment [2] (setting [4]), 28.6 nM.

For the molecule `CN1C(=O)CC2(Cc3cnc(Nc4ccc(N5CCNCC5)cn4)nc3N(C3CCCC3)C2=O)C1=O` (stereo not drawn) [Example D23, 8-cyclopentyl-1′-methyl-2-((5-(piperazin-1-yl)pyridin-2-yl)amino)-5,8-dihydro-7H-spiro[pyrido[2,3-d]pyrimidine-6,3′-pyrrolidine]-2′,5′,7-trione], the figures for the IC50 in experiment [1] (setting [3]) and in experiment [2] (setting [4]) were 65400 nM and 17100 nM, respectively.

On to `O=C1NCC[C@@]12Cc1cnc(N3CC4(CNC4)C3)nc1N(C1CCCC1)C2=O` [Example D198, (S)-8-cyclopentyl-2-(2,6-diazaspiro[3.3]heptan-2-yl)-5,8-dihydro-7H-spiro[pyrido[2,3-d]pyrimidine-6,3′-pyrrolidine]-2′,7-dione], for which the IC50 in experiment [1] (Table 4b, lower part, read-out: CDK6 CyclinD3 IC50) turned out to be 16200 nM.
